Consider twelve compounds from ChEMBL document CHEMBL1153599, “Synthesis of new chiral 2,5-disubstituted 1,3,4-thiadiazoles possessing gamma-butenolide moiety and preliminary evaluation of in vitro anticancer activity” (Eur J Med Chem, 2009).

In experiment [1] the test system is HeLa. Kind of experiment: Viability of human HeLa cells at 0.1 uM after 24 hrs by MTT assay. On the technique in general: Tetrazolium assays rely on reduction of a dye to a coloured formazan, in cell work by metabolically active cells.
Experiment [2] has as its system HeLa. In words: Viability of human HeLa cells at 5 uM after 24 hrs by MTT assay.
Experiment [3] relates to HeLa. In words: Anticancer activity against human HeLa cells after 24 hrs by MTT assay. Format: functional, cell-based.
The test system of experiment [4] is HeLa. Kind of experiment: Viability of human HeLa cells at 10 uM after 24 hrs by MTT assay.
Experiment [5] relates to HeLa. In words: Viability of human HeLa cells at 1 uM after 24 hrs by MTT assay.
Experiment [6] relates to HeLa. Kind of experiment: Viability of human HeLa cells at 20 uM after 24 hrs by MTT assay.

Broadly, the viability is a read-out of living cells in per cent, often relative to untreated cells. Low readings indicate more harm to the cells, high ones less harm to the cells. The IC50 is the concentration at which inhibition is half-maximal. For the compound `CC1CCC(C(C)C)C(O[C@H]2OC(=O)C(Br)=C2Sc2nnc(-c3ccc([N+](=O)[O-])cc3)s2)C1` (some centres not stated), the viability at 0.1 µM in the experiment with HeLa [1] was 59.2%. This compound showed a viability at 5 µM with HeLa [2] of 30%. The compound further had an IC50 with HeLa [3] of 0.9 µM. In the experiment on HeLa [4], this compound yielded a viability at 10 µM of 34.5%. This compound also returned a viability at 1 µM with HeLa [5] of 47.6%. Moreover, in the experiment with HeLa [6], the viability at 20 µM was determined as 24.5%.
`CC1CCC(C(C)C)C(O[C@H]2OC(=O)C(Br)=C2Sc2nnc(-c3ccccc3)s2)C1` (some centres not stated): the viability at 0.1 µM in the experiment with HeLa [1] amounted to 56.1%. The viability at 5 µM in the experiment on HeLa [2] came out at 40.6%. The compound further gave an IC50 in the experiment on HeLa [3] of 3 µM. The compound also had a viability at 10 µM with HeLa [4] of 28.1%. The compound also registered a viability at 1 µM in the experiment on HeLa [5] of 59.1%. The viability at 20 µM in the experiment with HeLa [6] is 29.7%.
In the experiment on HeLa [1], `CC1CCC(C(C)C)C(O[C@H]2OC(=O)C(Br)=C2Sc2nnc(-c3ccccc3O)s2)C1` (some centres not stated) had a viability at 0.1 µM of 58.9%. In the experiment with HeLa [2], this compound displayed a viability at 5 µM of 37.5%. In the experiment on HeLa [3], this compound had an IC50 of 2.9 µM. This compound had a viability at 10 µM with HeLa [4] of 42.3%. In the experiment with HeLa [5], this compound registered a viability at 1 µM of 61.2%. The compound also yielded a viability at 20 µM in the experiment with HeLa [6] of 33.4%.
Turning to `CC1CCC(C(C)C)C(O[C@H]2OC(=O)C(Br)=C2Sc2nnc(-c3ccco3)s2)C1` (some centres not stated), the viability at 0.1 µM with HeLa [1] turned out to be 55.6%. The compound also displayed a viability at 5 µM in the experiment with HeLa [2] of 29.4%. The same compound came in with a 50% inhibitory concentration (IC50) in the experiment on HeLa [3] of 1.7 µM. Moreover, in the experiment with HeLa [4], the viability at 10 µM was 36.9%. Further, in the experiment on HeLa [5], the viability at 1 µM came to 54.3%. The compound also yielded a viability at 20 µM in the experiment with HeLa [6] of 27.2%.
For `CC1CCC(C(C)C)C(O[C@H]2OC(=O)C(Br)=C2Sc2nnc(-c3cccnc3)s2)C1` (some centres not stated), in the experiment on HeLa [1], the viability at 0.1 µM was found to be 56.4%. Further, in the experiment on HeLa [2], the viability at 5 µM turned out to be 52.3%. In the experiment with HeLa [3], this compound yielded an IC50 of 5.6 µM. The compound further came in with a viability at 10 µM in the experiment on HeLa [4] of 32.8%. The compound further displayed a viability at 1 µM in the experiment on HeLa [5] of 59.5%. Moreover, the viability at 20 µM in the experiment on HeLa [6] was 33%.
As for `CC1CCC(C(C)C)C(O[C@H]2OC(=O)C(Br)=C2Sc2nnc(-c3ccc(Cl)cc3)s2)C1` (some centres not stated), the viability at 0.1 µM with HeLa [1] was determined as 51%. In the experiment with HeLa [2], the viability at 5 µM was determined as 29.3%. The compound also returned an IC50 with HeLa [3] of 2.2 µM. For the same compound, in the experiment on HeLa [4], the viability at 10 µM came to 35.1%. Besides, the viability at 1 µM in the experiment on HeLa [5] is 58.2%. The compound further came in with a viability at 20 µM with HeLa [6] of 26.8%.
Compound `CC1(C)C2CCC1(C)C(O[C@H]1OC(=O)C(Br)=C1Sc1nnc(-c3cccnc3)s1)C2` (some centres not stated) returned a viability at 0.1 µM with HeLa [1] of 58.9%. The same compound yielded a viability at 5 µM with HeLa [2] of 45.4%. Besides, in the experiment with HeLa [3], the half-inhibitory concentration (IC50) came to 3.4 µM. In addition, the viability at 10 µM in the experiment with HeLa [4] was 40.5%. The viability at 1 µM in the experiment on HeLa [5] was 56.3%. The compound further gave a viability at 20 µM with HeLa [6] of 36.3%.
`CC1(C)C2CCC1(C)C(O[C@H]1OC(=O)C(Br)=C1Sc1nnc(-c3ccncc3)s1)C2` (some centres not stated) returned a viability at 0.1 µM in the experiment on HeLa [1] of 51.8%. In addition, the viability at 5 µM with HeLa [2] stood at 44.9%. 3 µM corresponded to half-maximal inhibition in the experiment on HeLa [3] (IC50). In the experiment with HeLa [4], this compound showed a viability at 10 µM of 39.4%. The compound further displayed a viability at 1 µM in the experiment with HeLa [5] of 55.1%. The viability at 20 µM in the experiment on HeLa [6] is 40.6%.
As to `CC1(C)C2CCC1(C)C(O[C@H]1OC(=O)C(Br)=C1Sc1nnc(-c3ccco3)s1)C2` (some centres not stated), the viability at 0.1 µM in the experiment on HeLa [1] was 50.9%. Besides, in the experiment on HeLa [2], the viability at 5 µM turned out to be 31.1%. In the experiment with HeLa [3], this compound registered a 50% inhibitory concentration (IC50) of 1.3 µM. Besides, in the experiment with HeLa [4], the viability at 10 µM was determined as 28.6%. In the experiment with HeLa [5], the viability at 1 µM turned out to be 51.4%. The compound further yielded a viability at 20 µM in the experiment on HeLa [6] of 34.3%.
Regarding `COc1ccc(-c2nnc(SC3=C(Br)C(=O)O[C@@H]3OC3CC(C)CCC3C(C)C)s2)cc1` (some centres not stated), the viability at 0.1 µM with HeLa [1] was 56.4%. The compound further gave a viability at 5 µM with HeLa [2] of 47.1%. Besides, in the experiment on HeLa [3], the midpoint of inhibition, the IC50, lay at 3.7 µM. The viability at 10 µM in the experiment with HeLa [4] came to 35.6%. Besides, in the experiment on HeLa [5], the viability at 1 µM was found to be 55.6%. In addition, the viability at 20 µM in the experiment with HeLa [6] was determined as 32.9%.
Consider `CC1CCC(C(C)C)C(O[C@H]2OC(=O)C(Br)=C2Sc2nnc(-c3ccncc3)s2)C1` (some centres not stated), for which the viability at 0.1 µM with HeLa [1] stood at 73.8%. Moreover, the viability at 5 µM in the experiment on HeLa [2] was found to be 33.9%. The half-inhibitory concentration (IC50) with HeLa [3] worked out at 1.3 µM. The same compound came in with a viability at 10 µM in the experiment on HeLa [4] of 26.8%. Besides, the viability at 1 µM with HeLa [5] was determined as 51.3%. The same compound came in with a viability at 20 µM in the experiment with HeLa [6] of 22.3%.
The compound `CC1CCC(C(C)C)C(O[C@H]2OC(=O)C(Br)=C2Sc2nnc(-c3ccc(O)cc3)s2)C1` (some centres not stated) came in with a viability at 0.1 µM in the experiment on HeLa [1] of 60.6%. Also, in the experiment on HeLa [2], the viability at 5 µM came to 36%. The concentration for half-maximal inhibition (IC50) in the experiment on HeLa [3] is 2.6 µM. The compound also came in with a viability at 10 µM in the experiment on HeLa [4] of 44.4%. Besides, in the experiment with HeLa [5], the viability at 1 µM is 59.4%. In addition, the viability at 20 µM in the experiment with HeLa [6] is 36%.
